Values after ≈ are worked out from the molar mass of the structure shown. One block for each compound: values may come before it.
Tests used:
Assay in all cases: ≥ marks a high value that may be exact or a test limit, other limits are often not marked, values filed in µg/mL are converted to µM
Nocardia asteroides = test system: Nocardia asteroides
[1] = test system: Enterococcus faecalis 981
[2] = test system: Staphylococcus aureus ATCC 25923
[3] = test system: Escherichia coli KCTC 1682
[4] = test system: Aspergillus flavus KCTC 7375
[5] = test system: Trichosporon beigelii KCTC 7251
[6] = test system: Pseudomonas aeruginosa KCTC 1637
[7] = test system: Candida albicans KCTC 7121
Proteus vulgaris = test system: Proteus vulgaris
[8] = test system: Fusarium oxysporum KCTC 6084
[9] = test system: Bacillus megaterium KCTC 1096
[10] = test system: Bacillus subtilis KCTC 1918
[11] = test system: Staphylococcus aureus KCTC 1621
[12] = test system: Enterococcus faecalis IP103214
[13] = test system: Cryptococcus neoformans IP960-67
[14] = test system: Trichophyton simii IP1063-74
Escherichia coli IP76-24 = test system: Escherichia coli IP76-24
[15] = test system: Candida albicans IP884-65
[16] = test system: Aspergillus fumigatus IP1025-70
[17] = test system: Aspergillus niger IP218-53
[18] = test system: Staphylococcus aureus IP76-25
[19] = test system: Saccharomyces cerevisiae IP118079
[20] = test system: Aeromonas caviae IP67-16T
[21] = test system: Nocardia brasiliensis IP16-80
[22] = test system: Pseudomonas aeruginosa K799
[23] = test system: Salmonella enterica subsp. enterica serovar Typhimurium ATCC 14028s
[24] = test system: Aeromonas salmonicida 97-4
Escherichia coli DC2 = test system: Escherichia coli DC2
[25] = test system: Pseudomonas aeruginosa Z61
[26] = test system: Staphylococcus aureus C623
[27] = test system: Escherichia coli CGSC 4908
Escherichia coli UB1005 = test system: Escherichia coli UB1005
[28] = test system: Salmonella enterica serovar typhimurium MS7953s
[29] = test system: Aeromonas salmonicida 99-1
[30] = test system: Staphylococcus epidermidis C621
Candida albicans C627 = test system: Candida albicans C627

SMILES: CC[C@H](C)[C@H](NC(=O)[C@H](CCCCN)NC(=O)[C@@H]1CCCN1C(=O)[C@H](CC(C)C)NC(=O)[C@H](CC(C)C)NC(=O)[C@H](CO)NC(=O)CNC(=O)[C@H](CC(C)C)NC(=O)[C@H](C)NC(=O)CNC(=O)[C@H](CC(C)C)NC(=O)[C@H](CC(C)C)NC(=O)[C@H](Cc1ccccc1)NC(=O)[C@@H]1CCCN1C(=O)[C@H](Cc1ccccc1)NC(=O)[C@@H](N)Cc1ccccc1)C(=O)N[C@@H](Cc1ccccc1)C(N)=O [FFPFLLGALGSLLPKIF]
MIC (Nocardia asteroides): 6.3 µM (≈ 11.8 µg/mL) | MIC [1]: 25 µM (≈ 47 µg/mL) | MIC [2]: 12.5 µM (≈ 23.5 µg/mL)

SMILES: CC[C@H](C)[C@H](NC(=O)CNC(=O)[C@H](CCCCN)NC(=O)[C@H](CC(C)C)NC(=O)[C@H](CCSC)NC(=O)[C@H](CC(N)=O)NC(=O)[C@H](CCCCN)NC(=O)[C@H](Cc1c[nH]c2ccccc12)NC(=O)[C@H](CC(C)C)NC(=O)[C@H](C)N)C(=O)NCC(=O)N[C@@H](CCCCN)C(=O)N[C@@H](CC(C)C)C(=O)N[C@@H](C)C(=O)NCC(=O)N[C@@H](CCCCN)C(=O)N[C@@H](C)C(=O)N[C@@H](C)C(=O)N[C@@H](CC(C)C)C(=O)NCC(N)=O [ALWKNMLKGIGKLAGKAALG]
MIC [12]: 2 µM (≈ 4.08 µg/mL) | MIC [13]: 1 µM (≈ 2.04 µg/mL) | MIC [14]: 15 µM (≈ 30.6 µg/mL) | MIC (Escherichia coli IP76-24): 2 µM (≈ 4.08 µg/mL) | MIC [15]: 4 µM (≈ 8.16 µg/mL) | MIC [16]: 15 µM (≈ 30.6 µg/mL) | MIC [17]: 15 µM (≈ 30.6 µg/mL) | MIC [18]: 8 µM (≈ 16.3 µg/mL) | MIC [19]: 4 µM (≈ 8.16 µg/mL) | MIC [20]: 2 µM (≈ 4.08 µg/mL) | MIC [21]: 30 µM (≈ 61.2 µg/mL)

SMILES: CC[C@H](C)[C@H](NC(=O)CNC(=O)[C@H](CCCCN)NC(=O)[C@H](CC(C)C)NC(=O)[C@H](CCSC)NC(=O)[C@H](CC(N)=O)NC(=O)[C@H](CCCCN)NC(=O)[C@H](Cc1c[nH]c2ccccc12)NC(=O)[C@H](CC(C)C)NC(=O)[C@H](C)N)C(=O)NCC(=O)N[C@@H](CCCCN)C(=O)N[C@@H](CC(C)C)C(=O)N[C@@H](C)C(=O)NCC(=O)N[C@@H](CCCCN)C(N)=O [ALWKNMLKGIGKLAGK]
MIC [12]: 2 µM (≈ 3.45 µg/mL) | MIC [13]: 2 µM (≈ 3.45 µg/mL) | MIC [14]: 8 µM (≈ 13.8 µg/mL) | MIC (Escherichia coli IP76-24): 2 µM (≈ 3.45 µg/mL) | MIC [15]: 8 µM (≈ 13.8 µg/mL) | MIC [16]: 8 µM (≈ 13.8 µg/mL) | MIC [17]: 15 µM (≈ 25.9 µg/mL) | MIC [18]: ≥ 60 µM | MIC [19]: 4 µM (≈ 6.91 µg/mL) | MIC [20]: 2 µM (≈ 3.45 µg/mL) | MIC [21]: ≥ 70 µM

SMILES: CC[C@H](C)[C@H](NC(=O)[C@H](Cc1cnc[nH]1)NC(=O)[C@H](CCCCN)NC(=O)[C@H](C)NC(=O)[C@H](C)NC(=O)[C@H](Cc1cnc[nH]1)NC(=O)[C@H](CCCNC(=N)N)NC(=O)CNC(=O)[C@H](Cc1cnc[nH]1)NC(=O)[C@H](CCCCN)NC(=O)[C@H](Cc1ccccc1)NC(=O)[C@@H](NC(=O)[C@H](CO)NC(=O)CNC(=O)[C@H](Cc1c[nH]c2ccccc12)NC(=O)CN)[C@@H](C)CC)C(=O)NCC(=O)N[C@@H](Cc1cnc[nH]1)C(=O)N[C@@H](C)C(=O)N[C@@H](C)C(=O)N[C@H](C(=O)N[C@@H](CC(N)=O)C(=O)N[C@@H](Cc1cnc[nH]1)C(=O)N[C@@H](Cc1ccc(O)cc1)C(=O)N[C@@H](CC(C)C)C(C)=O)C(C)C [GWGSIFKHGRHAAKHIGHAAVNHYL]
MIC [22]: 5.79 µM (≈ 16 µg/mL) | MIC [23]: 23.1 µM (≈ 64 µg/mL) | MIC [24]: 1.45 µM (≈ 4 µg/mL) | MIC (Escherichia coli DC2): 0.723 µM (≈ 2 µg/mL) | MIC [25]: 1.45 µM (≈ 4 µg/mL) | MIC [26]: 11.6 µM (≈ 32 µg/mL) | MIC [27]: 1.45 µM (≈ 4 µg/mL) | MIC (Escherichia coli UB1005): 1.45 µM (≈ 4 µg/mL) | MIC [28]: 1.45 µM (≈ 4 µg/mL) | MIC [29]: 1.45 µM (≈ 4 µg/mL) | MIC [30]: 23.1 µM (≈ 64 µg/mL) | MIC (Candida albicans C627): 11.6 µM (≈ 32 µg/mL)

Results, then the compound that gave them:

MIC [3]: 12.5 µM (≈ 25.7 µg/mL) | MIC [4]: ≥ 100 µM | MIC [5]: ≥ 50 µM | MIC [6]: 1.56 µM (≈ 3.21 µg/mL) | MIC [7]: ≥ 50 µM | MIC (Proteus vulgaris): 3.12 µM (≈ 6.43 µg/mL) | MIC [8]: ≥ 100 µM | MIC [9]: 1.56 µM (≈ 3.21 µg/mL) | MIC [10]: 0.78 µM (≈ 1.61 µg/mL) | MIC [11]: 3.12 µM (≈ 6.43 µg/mL)
SMILES: CC[C@H](C)[C@H](NC(=O)[C@H](CCCCN)NC(=O)[C@H](CCCCN)NC(=O)[C@H](Cc1ccccc1)NC(=O)[C@H](Cc1c[nH]c2ccccc12)NC(=O)[C@@H](N)CCCCN)C(=O)N1CCC[C@H]1C(=O)N[C@@H](CCCCN)C(=O)N[C@@H](Cc1ccccc1)C(=O)N[C@@H](CC(C)C)C(=O)N[C@@H](Cc1cnc[nH]1)C(=O)N[C@@H](CC(C)C)C(=O)N[C@@H](C)C(=O)N[C@@H](CCCCN)C(=O)N[C@@H](CCCCN)C(=O)N[C@@H](Cc1ccccc1)C(N)=O [KWFKKIPKFLHLAKKF]

MIC [22]: 29.4 µM (≈ 64 µg/mL) | MIC [23]: 29.4 µM (≈ 64 µg/mL) | MIC [24]: ≥ 58.9 µM | MIC (Escherichia coli DC2): 29.4 µM (≈ 64 µg/mL) | MIC [25]: 14.7 µM (≈ 32 µg/mL) | MIC [26]: 29.4 µM (≈ 64 µg/mL) | MIC [27]: 29.4 µM (≈ 64 µg/mL) | MIC (Escherichia coli UB1005): 29.4 µM (≈ 64 µg/mL) | MIC [28]: 29.4 µM (≈ 64 µg/mL) | MIC [29]: ≥ 58.9 µM | MIC [30]: 29.4 µM (≈ 64 µg/mL) | MIC (Candida albicans C627): 29.4 µM (≈ 64 µg/mL)
SMILES: CC[C@H](C)[C@H](NC(=O)[C@H](CCCNC(=N)N)NC(=O)[C@H](CCCNC(=N)N)NC(=O)[C@H](CC(C)C)NC(=O)[C@@H](N)Cc1c[nH]c2ccccc12)C(=O)NCC(=O)N[C@@H](CCCCN)C(=O)NCC(=O)N[C@H](C(=O)N[C@@H](CCCCN)C(=O)N[C@H](C(=O)N[C@H](C(=O)NCC(=O)NCC(=O)N[C@@H](C)C(=O)N[C@@H](C)C(=O)N[C@@H](CC(C)C)C(=O)N[C@@H](CC(=O)O)C(=O)N[C@@H](Cc1cnc[nH]1)C(=O)N[C@@H](CC(C)C)C(N)=O)[C@@H](C)CC)[C@@H](C)CC)C(C)C [WLRRIGKGVKIIGGAALDHL]

MIC [3]: 6.25 µM (≈ 13.6 µg/mL) | MIC [4]: ≥ 50 µM | MIC [5]: ≥ 50 µM | MIC [6]: 1.56 µM (≈ 3.39 µg/mL) | MIC [7]: ≥ 50 µM | MIC (Proteus vulgaris): 1.56 µM (≈ 3.39 µg/mL) | MIC [8]: ≥ 50 µM | MIC [9]: 1.56 µM (≈ 3.39 µg/mL) | MIC [10]: 0.78 µM (≈ 1.69 µg/mL) | MIC [11]: 3.12 µM (≈ 6.79 µg/mL)
SMILES: CC[C@H](C)[C@H](NC(=O)[C@H](CCCCN)NC(=O)[C@H](CCCCN)NC(=O)[C@H](Cc1ccccc1)NC(=O)[C@H](CC(C)C)NC(=O)[C@H](CCCCN)NC(=O)[C@@H](N)Cc1c[nH]c2ccccc12)C(=O)N1CCC[C@H]1C(=O)N[C@@H](CCCCN)C(=O)N[C@@H](Cc1ccccc1)C(=O)N[C@@H](CC(C)C)C(=O)N[C@@H](Cc1cnc[nH]1)C(=O)N[C@@H](CC(C)C)C(=O)N[C@@H](C)C(=O)N[C@@H](CCCCN)C(=O)N[C@@H](CCCCN)C(=O)N[C@@H](Cc1ccccc1)C(N)=O [WKLFKKIPKFLHLAKKF]

Reference: DBAASP
